Laboratory results published in patent publication US4031218A, “7-(2,3-Dihydroxypropyl-1,3-di-n-propylxanthine and a pharmaceutical composition containing same useful as a bronchial muscle relaxant” (Mallinckrodt, Inc., priority 1976, dated 1977).
≈ marks a conversion by molar mass, not a printed value.

Tests used:
[1] = system: histamine-induced bronchospasm; assay: Protection against histamine aerosol in guinea pigs (in vivo bronchodilator); parameters: species or system guinea pig; settings: relative to theophylline, molar basis
Protocol: With the exception of theophylline, all compounds were administered as the free base dissolved or suspended in appropriate aqueous vehicles. […] Final comparisons were always based on the calculated dose of theophylline. Because of obvious differences in molecular weights, all compounds were compared on a molar basis rather than on absolute weight.
2. Protection Against Histamine Aerosol
Adult Camm English Short Hair male albino guinea pigs (270-600 gm.) were singularly confined in an inverted glass aquarium and continuously exposed to a finely atomized mist of 0.5% histamine diphosphate produced by a Devilbiss No. 40 nebulizer and compressed air at 300 mm. Hg. pressure. The period from the start of aerosolization until the appearance of ultimate collapse or convulsions is defined as the preconvulsive time and is relatively constant in the same animal. Preconvulsive times were determined for each dose of each compound in at least six guinea pigs. Control preconvulsive times were obtained three days prior to and three days following drug administration. Percent protection afforded by each compound was calculated by the formula:
% Protection = (1- C/T) × 100
where C is the average control preconvulsive time and T is the test preconvulsive time after compound administration, both in seconds.
The PD50 of each experimental compound was determined after both intraperitoneal and oral administration. A minimum of 3 dose levels and 6 animals per dose were employed to obtain meaningful dose-response data. Protection was assessed 15-20 minutes after intraperitoneal injection and 35-40 minutes after oral gavage with a flexible plastic tube. Animals were fasted overnight prior to oral dosing. All compounds were administered in aqueous solution in concentrations commensurate to a proper volume dose. Guinea pigs were utilized between 1 and 3 times but no animal received the same compound twice in succession with a minimum of 3 days rest between doses.

isolated rabbit heart = assay: Isolated rabbit heart preparation (Langendorff); format: cell-based; settings: mean for myocardial contractile force, heart rate, coronary flow; relative to theophylline
Protocol: 2. Isolated Rabbit Heart Preparation
In-vitro cardiodynamic activity of each compound except dyphylline was determined on the spontaneously beating isolated rabbit heart by the Langendorff method as modified by Anderson and Craver (J. Pharmacol. Exp. Ther., 93:135, 1948). After securing the extracted heart's ascending aorta to the apparatus, the coronaries were continuously perfused with aerated Chenoweth's solution (Chenoweth and Koelle, J. Lab. Clin. 31:600, 1946) maintained at a constant pressure-head and temperature of 38° C. The effects of logarithmically increasing doses of each compound were determined on contractile force, heart rate, and coronary flow. Drugs were dissolved in minimal volumes of Chenoweth's solution and injected into the downspout containing perfusate at 5-10 minute intervals.

dogs [2] = assay: Oral minimum emetic dose in dogs; format: in vivo, dog
Protocol: 2. Oral Minimum Emetic Dose
The minimum dose of each compound which causes emesis after oral administration was estimated in a group of five adult mongrel dogs of either sex. Logarithmically increasing or decreasing (depending upon response) doses of each compound were administered orally via a flexible stomach tube. The compounds were dissolved in distilled water in concentrations to allow a constant volume dose of 5 ml/kg. […] Onset, frequency, and duration of emetic episodes as well as signs of CNS stimulation were also recorded.

mice = assay: Voluntary motor activity in mice (CNS stimulation); format: in vivo, male albino Swiss mice
Protocol: F. Voluntary Motor Activity Studies in Mice In an attempt to quantitatively assess central nervous system activity, each compound was evaluated for its influence on voluntary motor activity in mice according to the method described by Dews (British J. Pharmacol. 8:46, 1953). Three cylindrical actophotometer cages were utilized simultaneously, each with six light beams and six photoelectric cells. Individual digital counters were connected to each activity cage. Male albino Swiss mice with weights ranging between 19 and 24 gm were used throughout. Compounds were dissolved in distilled water and were injected intraperitoneally in logarithmically spaced doses to groups of five mice, three groups per dose level. Control groups received saline.

rats = assay: Acute oral diuretic evaluation in rats; format: in vivo, Sprague Dawley rats; settings: relative to theophylline, molar basis
Protocol: 1. Acute Oral Evaluation in Rats
The oral diuretic effect of each compound was estimated in rats by a modification of the method described by Lipschitz et al. (J. Pharmacol. Exp. Ther. 79:97, 1943). Male Sprague Dawley rats (Carworth) weighing between 153 and 220 gms were fasted overnight. Groups of five animals each were administered three appropriate logarithmically spaced doses of each compound dissolved in saline in a constant volume dose of 25 ml/kg via an oral feeding needle. Controls received the same dose of only saline. The rats were then placed in individual metabolism cages and deprived of food and water for the remainder of the experiment. At the end of six hours, each rat was forced to expel urine in the bladder by pulling on the base of the tail. Parameters measured included urine volume, pH, and sodium and potassium excretion as measured by atomic absorption analysis. Six hour values were averaged for each dose of compound and for controls and were compared accordingly.

[3] = Summary of relative molar activities (means and therapeutic efficacy)
Source text: ^g - Mean bronchodilator (therapeutic) activity divided by mean acute

human bronchodilator = assay: Estimated human bronchodilator dose equivalent to recommended theophylline dose; settings: based on recommended theophylline dose and relative bronchodilator activities
Source text: Experimental results are summarized in Table I wherein pharmacologic and toxicologic activities relative to that of theophylline are expressed on a molar basis.
^a - Dose: Based on the recommended dose for theophylline and the
relative activities in the bronchodilator experiments.

Bronchodilator activity = settings: compared with theophylline
[4] = prior art statement; cited from earlier work
dogs [5] = assay: Intravenous cardiovascular evaluation in dogs
Protocol: Intravenous Cardiovascular Evaluation in Dogs
Thirteen adult mongrel dogs of either sex ranging in weight from 16.7 to 25.0 kg were employed to compare the overall intravenous cardiovascular activity of the five experimental compounds.
Dogs were anesthetized with pentobarbital sodium, 30-35 mg/kg i.v., fitted with a cuffed endotracheal tube, and ventilated with a Harvard Animal Respiratory Pump. A femoral vein was cannulated for i.v. drug administration. The left common carotid artery was cannulated and the cannula tip advanced into the aortic arch. A median sternotomy was performed and appropriately sized electromagnetic blood flow transducers (Biotronex) were placed around the ascending aorta and left anterior descending coronary artery. These procedures allowed continuous recording or calculation of the following parameters:
a. Mean Arterial Pressure (MAP); from the aortic cannula.
b. Heart Rate (HR); electronically from pulsatile ascending aortic flow.
c. Cardiac Output (CO); mean ascending aortic flow.
d. Myocardial Contractile Force (MCF); dQ/dt, the first derivative of maximum aortic flow rate, also known as peak aortic flow acceleration.
e. Stroke Volume (SV); quotient of CO/HR.
f. Cardiac Work (CW); product of CO X MAP.
g. Total Peripheral Resistance (TPR); quotient of MAP/CO.
h. Coronary Flow (CF); mean left anterior descending (LAD) coronary flow.
i. Coronary Resistance (CR); quotient of MAP/CF.
Logarithmically increasing doses of the appropriate compound were injected at 20-minute intervals. Responses were measured at 1, 2, 5, 10, 15 and 20 minutes after each dose and the average response during that period was calculated. Theophylline (aminophylline), dyphylline (II), and Compound V were employed in both 20 and 80 mg/ml concentrations in distilled water. Compounds III and IV were used in 10 and 30 mg/ml concentrations respectively.

dogs [6] = assay: Acute intravenous diuretic evaluation in dogs
Protocol: Acute Intravenous Evaluation in Dogs
Compounds were tested in two dogs each. Animals were initially hydrated with 30 ml/kg of water, orally; then anesthetized with pentobarbital sodium, 30-35 mg/kg i.v. One femoral vein was cannulated and a constant intravenous infusion of warm saline (3 ml/min.) was begun and continued throughout the experiment. The contralateral femoral vein was also cannulated for intravenous drug administration. Urine was directly collected from bilateral ureter cannulae. After a 20-minute control collection period, the first dose of the appropriate compound was injected and urine was collected at 20-minute intervals for a period of one hour. This procedure was repeated for two additional doses of the same compound. Urine volume, pH, and sodium and potassium levels were determined for each 20-minute collection period and sums were obtained for the one-hour period after each dose. Test results, reported as successive changes in each parameter, were compared accordingly.

[7] = relative to theophylline, molar basis

CCCn1c(=O)c2c(ncn2CCCO)n(CCC)c1=O [IV, 7-(3-hydroxypropyl)-1,3-di-n-propylxanthine]
Bronchodilator activity, In-Vivo I.P. (G. Pig), relative molar activity ([1]; i.p., 15-20 min after injection): 0.94
Bronchodilator activity, In-Vivo, Oral (G. Pig), relative molar activity ([1]; oral, 35-40 min after gavage): 0.92
In-Vitro; MCF, HR, CF (Rabbit Heart), mean relative molar activity (isolated rabbit heart): 1.81
MED (minimum emetic dose), P.O. Dogs (dogs [2]): 33 mg/kg
Emetic effect, P.O. Dogs (dogs [2]; estimated at HBD): None
Oral Emetic (Dogs), relative molar activity (dogs [2]; [7]): 6.00
CNS Activity, I.P. Mice (mice; estimated at HBD): Moderate
I.P. CNS Stimulation (Mice), relative molar activity (mice; [7]): 0.48
CNS Activity, I.P. Mice, change (mice; voluntary motor activity, estimated at HBD): -17 %Δ
Oral Diuretic (Rats), relative molar activity (rats): 1.48
Therapeutic Efficacy ([3]; mean bronchodilator (therapeutic) activity divided by mean acute toxic and side effect activity): 0.72
Mean acute toxicity and side effect activity (relative molar) ([3]; mean of acute toxicity and side effect lines of Table I, relative to theophylline): 2.60
Mean bronchodilator activity (relative molar) ([3]; mean of bronchodilator lines of Table I, relative to theophylline): 1.87
Estimated Human Bronchodilator Dose (HBD), per 70 kg (human bronchodilator): 347 mg/70 kg
Estimated Human Bronchodilator Dose (HBD), per kg (human bronchodilator): 5.0 mg/kg
Bronchodilator potency in words (Bronchodilator activity): more potent bronchodilators than theophylline
Side effects / tolerance in words (prior art) [4]: well tolerated
solubility (Solubility; water): 30 mg/mL (≈ 102 mM)
Solubility in words (Solubility; water solubility, qualitative): low solubilities
CF (coronary flow) change (dogs [5]; i.v. dogs, estimated at HBD): +4 %Δ
CO (cardiac output) change (dogs [5]; i.v. dogs, estimated at HBD): +2 %Δ
CW (cardiac work) change (dogs [5]; i.v. dogs, estimated at HBD): -26 %Δ
HR (heart rate) change (dogs [5]; i.v. dogs, estimated at HBD): +80 ΔBPM
MAP (mean arterial pressure) change (dogs [5]; i.v. dogs, estimated at HBD): -25 ΔmmHg
MCF (myocardial contractile force) change (dogs [5]; i.v. dogs, estimated at HBD): +20 %Δ
TPR (total peripheral resistance) change (dogs [5]; i.v. dogs, estimated at HBD): -5 %Δ
I.V. Cardiovascular (Dogs), mean relative molar activity (dogs [5]; mean for arterial pressure, heart rate, contractile force, cardiac output, stroke volume, cardiac work, TPR, coronary flow and resistance, relative to theophylline): 2.02
Cardiovascular effects (Mean) (dogs [5]; mean of the cardiovascular changes, i.v. dogs, estimated at HBD): 23
Diuretic Activity, I.V. Dogs (dogs [6]; estimated at HBD): Mild
I.V. Diuretic (Dogs), relative molar activity (dogs [6]; [7]): 0.45
